Data: patent publication US20240263128A1, “METHOD OF PRODUCING BIOLOGICAL MATERIAL” (NIPPON TELEGRAPH AND TELEPHONE CORPORATION, priority 2021, published 2024)

Assays:
Cyanidiosyzon merolae [1] = experiment: Fat and oil accumulation in unicellular red algae (BODIPY staining, fluorescence microscopy); type: cell-based; settings: 2 mmol/L dimethyl 2-oxoglutarate, MA2 culture medium, suspension culture under light, 24 hours after addition, compared with culture without promoter; FIG. 2 vs FIG. 4
Protocol: Unicellular red algae were cultured in suspension under a light condition and a promoter was added thereto. An MA2 culture medium was used as a culture medium. Cyanidiosyzon merolae were used as unicellular red algae. Dimethyl 2-oxoglutarate was used as a promoter. The promoter was added so that the final concentration of dimethyl 2-oxoglutarate would be 2 mmol/L. After the addition of the promoter, the cultivation was continued for 24 hours more. Thereafter, a bright field image was obtained for the cultured unicellular red algae using a microscope. In addition, the fat and oil of the unicellular red algae were stained with commercially available BODIPY (registered trademark) from the Cosmo Bio, Inc. Then, a fluorescence observation image of the unicellular red algae with stained fat and oil was acquired by using a fluorescence microscope. In addition, cultivation was similarly conducted as described above except that no promoter was added. Then, acquisition of a bright field image, staining of fat and oil, and acquisition of a fluorescence observation image were carried out also for the cultured unicellular red algae.

Cyanidiosyzon merolae [2] = experiment: Amount of starch in unicellular red algae after cultivation; type: cell-based; settings: 2 mmol/L dimethyl 2-oxoglutarate, MA2 culture medium, suspension culture under light, 24 hours after addition, compared with control without promoter; average of three independent tests, FIG. 5
Protocol: Unicellular red algae were cultured in suspension under a light condition and a promoter was added thereto. An MA2 culture medium was used as a culture medium. Cyanidiosyzon merolae were used as unicellular red algae. Dimethyl 2-oxoglutarate was used as a promoter. The promoter was added so that the final concentration of dimethyl 2-oxoglutarate would be 2 mmol/L. After the addition of the promoter, the cultivation was continued for 24 hours more. Thereafter, a bright field image was obtained for the cultured unicellular red algae using a microscope. In addition, the fat and oil of the unicellular red algae were stained with commercially available BODIPY (registered trademark) from the Cosmo Bio, Inc. Then, a fluorescence observation image of the unicellular red algae with stained fat and oil was acquired by using a fluorescence microscope. The same cultivation as in test 1 was performed, and the amount of starch contained in the unicellular red algae after the cultivation was determined. FIG. 5 is a graph showing an example of the influence of addition of a promoter on the amount of accumulation of starch. […] In FIG. 5, “control” represents the results obtained for the unicellular red algae cultured without adding a promoter to the culture medium. […]

Compound: COC(=O)CCC(=O)C(=O)OC [promoter, dimethyl 2-oxoglutarate]
- accumulation of fat and oil (fluorescence caused by BODIPY staining) (Cyanidiosyzon merolae [1]): greatly promoted
- amount of accumulation of starch (Cyanidiosyzon merolae [2]): greatly promoted
